Data: ChEMBL document CHEMBL4507298 (2021)

Experiments:
[1] = molecular target: Tyrosine-protein kinase ZAP-70 (Homo sapiens) (UniProt P43403); conditions: Compound concentration 1000.0 nM
[2] = molecular target: Receptor tyrosine-protein kinase erbB-3 (Homo sapiens) (UniProt P21860); conditions: Compound concentration 1000.0 nM
[3] = molecular target: 5-hydroxytryptamine receptor 5A (Homo sapiens) (UniProt P47898); conditions: Compound concentration 10.0 uM
[4] = molecular target: C-X-C chemokine receptor type 4 (Homo sapiens) (UniProt P61073); assay: CXCR4 (h) CEREP ligand profiling; conditions: Compound concentration 10.0 uM
[5] = molecular target: Macrophage colony-stimulating factor 1 receptor (Homo sapiens) (UniProt P07333); conditions: Compound concentration 1000.0 nM
[6] = molecular target: T1, 5-hydroxytryptamine receptor 2C (Homo sapiens) (UniProt P28335); assay: 5-HT2C (h) (agonist site) CEREP ligand profiling; conditions: Compound concentration 10.0 uM
T1 sequence (whole entry): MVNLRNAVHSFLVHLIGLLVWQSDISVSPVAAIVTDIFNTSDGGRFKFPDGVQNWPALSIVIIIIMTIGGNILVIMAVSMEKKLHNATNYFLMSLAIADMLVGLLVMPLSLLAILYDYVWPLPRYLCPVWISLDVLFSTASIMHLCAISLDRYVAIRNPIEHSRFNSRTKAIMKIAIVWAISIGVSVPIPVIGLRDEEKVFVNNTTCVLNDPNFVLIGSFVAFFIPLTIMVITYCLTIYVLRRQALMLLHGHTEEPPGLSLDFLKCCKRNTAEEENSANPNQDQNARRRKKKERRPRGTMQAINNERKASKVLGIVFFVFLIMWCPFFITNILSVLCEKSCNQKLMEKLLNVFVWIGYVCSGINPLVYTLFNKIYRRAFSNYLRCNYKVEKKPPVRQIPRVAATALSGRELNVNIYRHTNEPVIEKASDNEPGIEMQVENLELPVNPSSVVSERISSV

[7] = molecular target: Ephrin type-A receptor 5 (Homo sapiens) (UniProt P54756); conditions: Compound concentration 1000.0 nM
[8] = molecular target: Serine/threonine-protein kinase D3 (Homo sapiens) (UniProt O94806); conditions: Compound concentration 1000.0 nM
[9] = molecular target: Myosin-IIIb (Homo sapiens) (UniProt Q8WXR4); conditions: Compound concentration 1000.0 nM
[10] = molecular target: Serine/threonine-protein kinase RIO3 (Homo sapiens) (UniProt O14730); conditions: Compound concentration 1000.0 nM
Sequence of Serine/threonine-protein kinase RIO3 (Homo sapiens) (O14730 whole entry): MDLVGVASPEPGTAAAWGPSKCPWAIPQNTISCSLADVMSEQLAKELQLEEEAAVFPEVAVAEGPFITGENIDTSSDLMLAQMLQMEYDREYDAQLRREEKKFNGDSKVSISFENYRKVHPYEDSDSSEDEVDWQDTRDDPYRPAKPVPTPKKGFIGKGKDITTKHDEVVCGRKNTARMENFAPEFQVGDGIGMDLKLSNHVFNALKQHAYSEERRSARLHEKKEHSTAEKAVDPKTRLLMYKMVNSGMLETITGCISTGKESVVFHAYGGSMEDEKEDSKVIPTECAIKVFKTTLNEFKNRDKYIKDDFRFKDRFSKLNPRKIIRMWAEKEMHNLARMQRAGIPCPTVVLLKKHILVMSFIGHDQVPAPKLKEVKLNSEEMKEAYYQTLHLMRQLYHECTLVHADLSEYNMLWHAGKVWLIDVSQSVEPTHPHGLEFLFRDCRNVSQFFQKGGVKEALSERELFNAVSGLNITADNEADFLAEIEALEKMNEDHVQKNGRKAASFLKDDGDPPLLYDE

[11] = molecular target: Cyclin-G-associated kinase (Homo sapiens) (UniProt O14976); conditions: Compound concentration 1000.0 nM
Sequence of Cyclin-G-associated kinase (Homo sapiens) (O14976 whole entry): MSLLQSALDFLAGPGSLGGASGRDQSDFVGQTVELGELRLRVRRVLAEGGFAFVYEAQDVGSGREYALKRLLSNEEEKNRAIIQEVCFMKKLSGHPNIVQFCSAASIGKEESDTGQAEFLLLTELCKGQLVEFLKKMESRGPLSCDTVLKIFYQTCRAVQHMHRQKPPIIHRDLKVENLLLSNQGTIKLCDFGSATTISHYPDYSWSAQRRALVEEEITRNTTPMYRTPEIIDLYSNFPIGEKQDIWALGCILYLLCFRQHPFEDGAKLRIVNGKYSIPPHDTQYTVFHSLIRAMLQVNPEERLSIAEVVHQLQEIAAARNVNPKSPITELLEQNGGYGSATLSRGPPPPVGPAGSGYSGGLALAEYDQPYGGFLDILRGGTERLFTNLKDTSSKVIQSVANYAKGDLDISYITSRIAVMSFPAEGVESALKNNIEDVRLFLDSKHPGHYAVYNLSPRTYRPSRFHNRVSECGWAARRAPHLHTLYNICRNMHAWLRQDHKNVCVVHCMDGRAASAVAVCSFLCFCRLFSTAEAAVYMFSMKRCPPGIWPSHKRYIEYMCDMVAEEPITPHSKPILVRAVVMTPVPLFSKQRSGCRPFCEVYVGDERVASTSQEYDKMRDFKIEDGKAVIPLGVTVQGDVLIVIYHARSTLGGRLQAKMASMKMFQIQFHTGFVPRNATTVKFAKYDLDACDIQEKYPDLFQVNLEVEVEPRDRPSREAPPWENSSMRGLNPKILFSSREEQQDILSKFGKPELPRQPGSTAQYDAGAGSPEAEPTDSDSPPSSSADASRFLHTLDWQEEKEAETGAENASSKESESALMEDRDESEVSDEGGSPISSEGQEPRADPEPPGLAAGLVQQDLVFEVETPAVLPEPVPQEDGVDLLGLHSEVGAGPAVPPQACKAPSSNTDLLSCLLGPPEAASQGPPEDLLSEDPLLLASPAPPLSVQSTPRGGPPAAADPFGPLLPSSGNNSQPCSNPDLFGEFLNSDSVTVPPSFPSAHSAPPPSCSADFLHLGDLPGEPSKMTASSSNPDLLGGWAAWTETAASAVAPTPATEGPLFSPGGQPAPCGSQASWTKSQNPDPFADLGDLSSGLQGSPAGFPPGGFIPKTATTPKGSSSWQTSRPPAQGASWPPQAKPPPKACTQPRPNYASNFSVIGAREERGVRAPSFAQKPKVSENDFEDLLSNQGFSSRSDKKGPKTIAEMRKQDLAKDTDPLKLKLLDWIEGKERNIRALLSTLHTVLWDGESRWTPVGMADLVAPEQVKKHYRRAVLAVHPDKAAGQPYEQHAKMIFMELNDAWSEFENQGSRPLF

[12] = molecular target: Beta-2 adrenergic receptor (Homo sapiens) (UniProt P07550); assay: beta 2 (h) CEREP ligand profiling; conditions: Compound concentration 10.0 uM
[13] = test system: Proto-oncogene tyrosine-protein kinase receptor Ret (Homo sapiens), P07949 [M918T]; conditions: Compound concentration 1000.0 nM
[14] = molecular target: Protein-tyrosine kinase 6 (Homo sapiens) (UniProt Q13882); conditions: Compound concentration 1000.0 nM
Sequence of Protein-tyrosine kinase 6 (Homo sapiens) (Q13882 whole entry, looked up): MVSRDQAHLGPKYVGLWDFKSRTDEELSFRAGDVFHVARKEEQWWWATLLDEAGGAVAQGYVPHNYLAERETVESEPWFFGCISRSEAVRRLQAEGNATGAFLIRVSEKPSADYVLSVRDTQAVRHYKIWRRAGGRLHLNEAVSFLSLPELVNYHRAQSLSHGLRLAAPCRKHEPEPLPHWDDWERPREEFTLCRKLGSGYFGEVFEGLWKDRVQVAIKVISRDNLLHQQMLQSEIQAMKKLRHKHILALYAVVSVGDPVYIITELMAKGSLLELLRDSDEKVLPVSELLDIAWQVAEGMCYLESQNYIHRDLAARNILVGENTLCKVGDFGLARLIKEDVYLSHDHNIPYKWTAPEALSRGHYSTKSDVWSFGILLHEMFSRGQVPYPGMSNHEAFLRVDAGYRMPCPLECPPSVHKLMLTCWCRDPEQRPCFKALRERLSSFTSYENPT

[15] = molecular target: Mitogen-activated protein kinase kinase kinase kinase 1 (Homo sapiens) (UniProt Q92918); conditions: Compound concentration 1000.0 nM
[16] = molecular target: Angiotensin-converting enzyme (Homo sapiens) (UniProt P12821); assay: ACE (h) CEREP ligand profiling; conditions: Compound concentration 10.0 uM
[17] = molecular target: Serine/threonine-protein kinase MRCK gamma (Homo sapiens) (UniProt Q6DT37); conditions: Compound concentration 1000.0 nM
[18] = molecular target: Voltage-gated L-type calcium channel (diltiazem site) (Homo sapiens, UniProt O60840+Q01668+Q13698+Q13936); assay: Ca2+ channel (L, diltiazem site) CEREP ligand profiling; type: protein assay; conditions: compound concentration 10 uM
[19] = molecular target: Serine/threonine-protein kinase PLK4 (Homo sapiens) (UniProt O00444); conditions: Compound concentration 1000.0 nM
[20] = molecular target: Serine/threonine-protein kinase Sgk2 (Homo sapiens) (UniProt Q9HBY8); conditions: Compound concentration 1000.0 nM
[21] = molecular target: Maternal embryonic leucine zipper kinase (Homo sapiens) (UniProt Q14680); conditions: Compound concentration 1000.0 nM
[22] = molecular target: Serine/threonine-protein kinase TAO3 (Homo sapiens) (UniProt Q9H2K8); conditions: Compound concentration 1000.0 nM
Sequence of Serine/threonine-protein kinase TAO3 (Homo sapiens) (Q9H2K8 whole entry, canonical isoform): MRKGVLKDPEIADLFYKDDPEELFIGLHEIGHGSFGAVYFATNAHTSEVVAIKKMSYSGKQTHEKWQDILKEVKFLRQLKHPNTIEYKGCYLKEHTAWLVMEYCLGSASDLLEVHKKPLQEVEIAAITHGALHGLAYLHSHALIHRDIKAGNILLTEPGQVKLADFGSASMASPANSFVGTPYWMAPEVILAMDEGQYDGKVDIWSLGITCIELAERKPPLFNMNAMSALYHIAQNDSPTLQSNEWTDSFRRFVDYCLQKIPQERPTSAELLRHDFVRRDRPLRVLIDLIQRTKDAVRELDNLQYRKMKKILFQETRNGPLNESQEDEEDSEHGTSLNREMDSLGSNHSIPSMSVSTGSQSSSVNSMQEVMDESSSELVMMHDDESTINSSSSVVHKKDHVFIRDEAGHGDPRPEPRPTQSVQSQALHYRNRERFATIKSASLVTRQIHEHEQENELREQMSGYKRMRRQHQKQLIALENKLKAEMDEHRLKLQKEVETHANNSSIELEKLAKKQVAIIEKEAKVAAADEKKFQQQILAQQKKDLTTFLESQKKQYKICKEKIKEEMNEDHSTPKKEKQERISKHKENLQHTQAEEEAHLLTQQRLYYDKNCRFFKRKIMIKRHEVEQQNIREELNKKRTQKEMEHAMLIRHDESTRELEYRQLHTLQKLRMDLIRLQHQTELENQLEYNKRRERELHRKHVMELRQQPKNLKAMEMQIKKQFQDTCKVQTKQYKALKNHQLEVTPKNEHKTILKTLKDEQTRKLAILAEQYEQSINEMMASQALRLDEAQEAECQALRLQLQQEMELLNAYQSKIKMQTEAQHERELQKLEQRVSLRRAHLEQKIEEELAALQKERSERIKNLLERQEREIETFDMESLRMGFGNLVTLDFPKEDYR

[23] = test system: Phosphatidylinositol 4,5-bisphosphate 3-kinase catalytic subunit alpha isoform (Homo sapiens), P42336 [Q546K]; conditions: Compound concentration 1000.0 nM
[24] = molecular target: High affinity choline transporter 1 (Homo sapiens) (UniProt Q9GZV3); assay: Choline transporter (h) (CHT1) CEREP ligand profiling; conditions: Compound concentration 10.0 uM
Sequence of High affinity choline transporter 1 (Homo sapiens) (Q9GZV3 whole entry): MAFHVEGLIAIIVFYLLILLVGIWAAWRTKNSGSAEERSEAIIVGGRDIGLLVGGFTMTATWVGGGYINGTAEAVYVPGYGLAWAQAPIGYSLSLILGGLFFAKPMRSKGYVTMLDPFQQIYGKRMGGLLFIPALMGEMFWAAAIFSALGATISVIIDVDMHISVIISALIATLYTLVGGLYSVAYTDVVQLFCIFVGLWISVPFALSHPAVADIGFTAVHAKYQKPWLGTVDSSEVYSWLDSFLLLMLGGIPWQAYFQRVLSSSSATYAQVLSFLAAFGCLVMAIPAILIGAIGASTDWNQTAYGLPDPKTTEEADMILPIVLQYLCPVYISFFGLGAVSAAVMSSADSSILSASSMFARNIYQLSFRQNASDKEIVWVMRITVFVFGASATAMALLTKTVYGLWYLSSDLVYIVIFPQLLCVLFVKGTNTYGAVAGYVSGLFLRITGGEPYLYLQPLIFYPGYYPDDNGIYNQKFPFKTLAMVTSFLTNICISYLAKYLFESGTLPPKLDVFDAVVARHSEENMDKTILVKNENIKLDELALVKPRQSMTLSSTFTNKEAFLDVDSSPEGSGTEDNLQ

[25] = molecular target: Sodium-dependent serotonin transporter (Homo sapiens) (UniProt P31645); assay: 5-HT transporter (h) CEREP ligand profiling; conditions: Compound concentration 10.0 uM
Sequence of Sodium-dependent serotonin transporter (Homo sapiens) (P31645 whole entry, looked up): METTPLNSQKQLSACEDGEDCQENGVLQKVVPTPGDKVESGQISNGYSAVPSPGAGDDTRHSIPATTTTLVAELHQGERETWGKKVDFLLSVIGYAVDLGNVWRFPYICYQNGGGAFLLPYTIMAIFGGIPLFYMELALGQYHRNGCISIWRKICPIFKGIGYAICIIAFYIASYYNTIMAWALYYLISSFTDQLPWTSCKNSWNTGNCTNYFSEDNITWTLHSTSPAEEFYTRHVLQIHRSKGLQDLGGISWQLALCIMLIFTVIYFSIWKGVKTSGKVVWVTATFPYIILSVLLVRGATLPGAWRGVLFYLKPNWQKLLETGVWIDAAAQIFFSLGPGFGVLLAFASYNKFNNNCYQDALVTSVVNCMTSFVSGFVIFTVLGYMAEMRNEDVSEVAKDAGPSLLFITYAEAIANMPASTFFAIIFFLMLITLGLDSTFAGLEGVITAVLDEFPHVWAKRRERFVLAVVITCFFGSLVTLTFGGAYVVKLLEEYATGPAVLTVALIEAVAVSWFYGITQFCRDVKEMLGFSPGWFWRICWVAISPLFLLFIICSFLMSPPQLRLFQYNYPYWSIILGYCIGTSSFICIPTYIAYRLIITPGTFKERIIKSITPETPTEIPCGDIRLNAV

[26] = test system: Tyrosine-protein kinase ABL1 (Homo sapiens), P00519 [T315I]; conditions: Compound concentration 1000.0 nM
[27] = molecular target: Cyclin-dependent kinase 2 homolog (Plasmodium falciparum (isolate 3D7)) (UniProt P61075); conditions: Compound concentration 1000.0 nM
[28] = molecular target: SRSF protein kinase 1 (Homo sapiens) (UniProt Q96SB4); conditions: Compound concentration 1000.0 nM
Sequence of SRSF protein kinase 1 (Homo sapiens) (Q96SB4 whole entry): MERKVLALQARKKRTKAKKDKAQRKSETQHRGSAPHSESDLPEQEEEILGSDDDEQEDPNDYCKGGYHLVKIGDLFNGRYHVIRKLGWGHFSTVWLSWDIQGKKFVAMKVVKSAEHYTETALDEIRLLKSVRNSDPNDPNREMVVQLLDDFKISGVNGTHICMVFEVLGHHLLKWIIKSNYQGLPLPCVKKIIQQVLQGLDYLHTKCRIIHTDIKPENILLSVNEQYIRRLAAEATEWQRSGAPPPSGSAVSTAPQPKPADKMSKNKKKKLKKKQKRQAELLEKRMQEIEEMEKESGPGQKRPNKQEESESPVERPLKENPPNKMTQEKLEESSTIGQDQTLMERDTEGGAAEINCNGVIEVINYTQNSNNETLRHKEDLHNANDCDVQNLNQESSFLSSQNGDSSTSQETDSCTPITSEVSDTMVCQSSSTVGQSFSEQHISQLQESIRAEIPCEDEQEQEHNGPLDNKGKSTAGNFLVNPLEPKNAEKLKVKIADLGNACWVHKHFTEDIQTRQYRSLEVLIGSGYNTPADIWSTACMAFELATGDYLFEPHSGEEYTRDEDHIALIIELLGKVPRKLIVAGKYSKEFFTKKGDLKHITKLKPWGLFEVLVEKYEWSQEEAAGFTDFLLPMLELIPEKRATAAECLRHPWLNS

[29] = molecular target: 5-hydroxytryptamine receptor 1A (Homo sapiens) (UniProt P08908); assay: 5-HT1A (h) CEREP ligand profiling; conditions: Compound concentration 10.0 uM
[30] = molecular target: Peripheral plasma membrane protein CASK (Homo sapiens) (UniProt O14936); conditions: Compound concentration 1000.0 nM
[31] = molecular target: Serine/threonine-protein kinase NLK (Homo sapiens) (UniProt Q9UBE8); conditions: Compound concentration 1000.0 nM
[32] = test system: Receptor-type tyrosine-protein kinase FLT3 (Homo sapiens), P36888 [N841I]; conditions: Compound concentration 1000.0 nM
[33] = molecular target: Tyrosine-protein kinase JAK1 (Homo sapiens) (UniProt P23458); conditions: Compound concentration 1000.0 nM
[34] = molecular target: Serine/threonine-protein kinase LATS1 (Homo sapiens) (UniProt O95835); conditions: Compound concentration 1000.0 nM
CYP2C9 = CYP2C9 (Homo sapiens, UniProt P11712); assay: CYP2C9 inhibition CEREP ligand profiling; conditions: compound concentration 10 uM
[35] = molecular target: Voltage-gated L-type calcium channel (DHP site) (Homo sapiens, UniProt O60840+Q01668+Q13698+Q13936); assay: Ca2+ channel (L, DHP site) CEREP ligand profiling; type: protein assay; conditions: compound concentration 10 uM
[36] = molecular target: Tyrosine-protein kinase ABL1 (Homo sapiens) (UniProt P00519); assay: Abl kinase (h) CEREP ligand profiling; conditions: Compound concentration 10.0 uM
[37] = molecular target: Prostaglandin E2 receptor EP2 subtype (Homo sapiens, UniProt P43116); assay: Inhibition of binding to PTGER2

COc1ccc2cc(OCC3(C(=O)O)CN(C(=O)c4ccc(F)cc4)C3)ccc2c1 [PF-04418948]
residual activity [1]: 99% | residual activity [2]: 89% | inhibition [3]: -8.97% | inhibition [4]: 4% | residual activity [5]: 75% | inhibition [6]: -6% | residual activity [7]: 78% | residual activity [8]: 91% | residual activity [9]: 71% | residual activity [10]: 97% | residual activity [11]: 88% | inhibition [12]: -4% | residual activity [13]: 75% | residual activity [14]: 99% | residual activity [15]: 95% | inhibition [16]: 14% | residual activity [17]: 91% | inhibition at 10 µM [18]: 6% (not active) | residual activity [19]: 82% | residual activity [20]: 87% | residual activity [21]: 86% | residual activity [22]: 35% | residual activity [23]: 42% | inhibition [24]: 4% | inhibition [25]: -8% | residual activity [26]: 84% | residual activity [27]: 97% | residual activity [28]: 72% | inhibition [29]: 6% | residual activity [30]: 91% | residual activity [31]: 94% | residual activity [32]: 76% | residual activity [33]: 93% | residual activity [34]: 87% | inhibition at 10 µM (CYP2C9): 41% (not active) | inhibition at 10 µM [35]: -3% (not active) | inhibition [36]: 9%

O=C(c1ccc(F)cc1)N1CC(COc2ccc(Br)cc2)(C(=O)O)C1 [PF-04475866]
IC50 [37]: 1300 nM (not active)
